Measured values as given in PMC12281424, “A Rac-specific competitive inhibitor of guanine nucleotide binding reduces metastasis in triple-negative breast cancer” (Cell Reports Medicine, 2025).

What was measured:
[1] = target: EphB4(h) (Homo sapiens, UniProt P54760); assay: Kinase Profiler; type: biochemical
Method: Blood cell counts, kinase profiler, safety screen, bacterial cytotoxicity, Ames, micronucleus assays were performed by the company Eurofins (France). The kinase profiler was performed by the company Eurofins (Discovery, Panlab and Cerep).

[2] = target: RIPK2(h) (Homo sapiens, UniProt O43353); assay: Kinase Profiler; type: biochemical
Method: The kinase profiler was performed by the company Eurofins (Discovery, Panlab and Cerep).

[3] = target: T1, RAC1 (Mus musculus, UniProt P63001); assay: RAC-GTP pull-down assay, EGF-stimulated NIH/3T3 fibroblasts; type: cell-based; settings: 10^-5 M, 1 h, EGF 10 ng/mL 5 min
T1 construct: endogenous in cells; host or cells: NIH/3T3 fibroblasts (ATCC CRL-1658), EGF-stimulated
Method: Figure 2 Identification of a new RAC1 inhibitor (A) Effect of A41 and NSC23766 on ruffle formation (white arrows) induced by EGF (10 ng/mL) in NIH 3T3 cells in serum-free culture medium (CTL). Inhibitors were added at indicated concentration 1 h prior to EGF stimulation. To assess cytoskeleton organization, cells were incubated with Alexa Fluor 488 phalloidin to visualize F-actin. Results shown are representative of 3 independent experiments. Corresponding concentration-response curves have been established by counting the percentages of cells with ruffles (scale bars: 10 μm). (B) Immunoblot analysis and associated quantification of RAC-GTP level and total RAC expression in NIH 3T3 cells stimulated by EGF (10 ng/mL, 5 min) and pre-incubated or not (−) with NSC23766, A41, or A415 at 10^−5 M for 1 h (∗∗∗p < 0.001 vs. controls without EGF stimulation, ^###p < 0.001 vs. controls with EGF stimulation) (N > 3). (C) Representative surface plasmon resonance (SPR) sensograms of binding of immobilized RAC1 with increasing concentrations of A41 with or without EDTA (20 mM) (N > 3). (D) Representative in vitro nucleotide exchange catalyzed by the DH-PH of TIAM (10 nM) measured by the binding of fluorescent mant-GTP (1 μM) to RAC1 (0.5 μM, preloaded with GDP) in the presence of indicated concentrations of A41 (out of N = 6). Dotted lines correspond to the experimental curves, and continuous lines represent the fit of experimental points. (E) Kobs and Kmax were determined in each condition (N = 6). (F) Predicted binding modes of A4 to the NSC23766-binding site (left) or the GDP-binding pocket of RAC1 (right). In the NSC23766-binding site of RAC1, the compound A4 (carbon atoms in blue) makes 2 hydrogen bonds (green dotted line) with Ser71 (S71) and 10 hydrophobic interactions (pink dotted line) with Ala3 (A3), Lys5 (K5), Val36 (V36), Trp56 (W56), Tyr64 (Y64), and Leu67 (L67) leading to a docking score of −6.03 kcal/mol. The GDP molecule is shown with fine line. The P loop is shown in yellow, the switch 1 in orange, and the switch 2 in green. […]
Pull-down assay using GST-PBD fusion proteins were performed on NIH-3T3 lysates to assess RAC1 activity as previously described.[63] The precipitated active RAC was subjected to SDS-PAGE and detected by immunoblot with anti-RAC1 antibody (BD biosciences) (dilution 1/1000). […]
screening molecules (10^-5 M) on NIH/3T3 cell adhesion (xCELLingence Real-time cellanalysis, Agilent), migration (CYTOO Mobility plates) and proliferation (xCELLingence Real-time cell analysis, Agilent) .The level of RAC activation is determinedby the detection of RAC-GTP (pull-down assay) in NIH/3T3 cell treated with EGF (10 ng/mL) and the differentmolecules and normalize to the level of RAC activity measuredin the presenceof the reference RAC inhibitor EHT1864.

RIPK2(h), sequence (O43353 whole entry): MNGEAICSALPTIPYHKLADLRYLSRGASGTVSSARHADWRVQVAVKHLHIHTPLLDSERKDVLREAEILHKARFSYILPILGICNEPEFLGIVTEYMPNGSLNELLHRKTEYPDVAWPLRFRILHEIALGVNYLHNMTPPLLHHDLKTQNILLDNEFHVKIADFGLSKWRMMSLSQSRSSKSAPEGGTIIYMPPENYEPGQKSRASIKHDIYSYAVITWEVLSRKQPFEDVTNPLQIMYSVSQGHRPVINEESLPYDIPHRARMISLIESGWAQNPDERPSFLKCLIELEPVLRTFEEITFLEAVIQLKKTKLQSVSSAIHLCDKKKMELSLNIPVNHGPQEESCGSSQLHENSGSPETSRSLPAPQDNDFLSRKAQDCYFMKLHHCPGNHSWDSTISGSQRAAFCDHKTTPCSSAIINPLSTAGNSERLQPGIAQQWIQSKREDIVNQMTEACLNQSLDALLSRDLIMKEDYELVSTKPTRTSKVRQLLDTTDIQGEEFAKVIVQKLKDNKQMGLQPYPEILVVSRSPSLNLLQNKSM
EphB4(h), sequence (P54760 16-987): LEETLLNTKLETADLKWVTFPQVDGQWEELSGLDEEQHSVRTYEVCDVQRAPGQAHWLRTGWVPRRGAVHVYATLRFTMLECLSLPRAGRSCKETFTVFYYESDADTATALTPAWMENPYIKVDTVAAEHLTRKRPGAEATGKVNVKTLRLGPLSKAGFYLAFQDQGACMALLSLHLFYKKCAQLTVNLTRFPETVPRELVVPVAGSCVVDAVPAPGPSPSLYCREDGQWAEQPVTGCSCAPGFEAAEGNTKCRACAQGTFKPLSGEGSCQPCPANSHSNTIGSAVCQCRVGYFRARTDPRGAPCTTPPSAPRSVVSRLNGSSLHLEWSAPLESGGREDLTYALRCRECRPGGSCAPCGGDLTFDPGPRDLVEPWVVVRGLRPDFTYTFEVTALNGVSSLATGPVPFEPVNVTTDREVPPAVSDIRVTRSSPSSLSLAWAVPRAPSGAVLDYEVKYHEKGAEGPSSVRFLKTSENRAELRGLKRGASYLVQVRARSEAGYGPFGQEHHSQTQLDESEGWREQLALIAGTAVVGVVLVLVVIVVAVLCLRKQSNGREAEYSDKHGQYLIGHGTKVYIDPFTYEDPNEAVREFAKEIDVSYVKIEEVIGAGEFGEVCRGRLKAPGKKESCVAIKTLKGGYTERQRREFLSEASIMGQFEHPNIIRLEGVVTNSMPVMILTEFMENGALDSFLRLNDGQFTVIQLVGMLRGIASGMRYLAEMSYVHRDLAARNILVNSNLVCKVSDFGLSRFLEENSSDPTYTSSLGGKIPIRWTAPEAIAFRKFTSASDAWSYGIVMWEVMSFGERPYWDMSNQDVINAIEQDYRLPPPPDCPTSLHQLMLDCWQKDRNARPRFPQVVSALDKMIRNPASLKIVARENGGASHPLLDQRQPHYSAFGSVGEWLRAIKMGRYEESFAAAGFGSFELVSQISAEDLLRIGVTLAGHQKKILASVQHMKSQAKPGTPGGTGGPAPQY

COc1ccc(OC)c(NS(=O)(=O)c2ccc(NC(=O)CCSc3ccc(C)cc3)cc2)c1 [Compound A41]
Activity(%) [1]: 112% | Activity(%) [2]: 94% | RAC1 activation (active GTP-bound RAC1) [3]: blocked RAC1 activation
